Experimental data reported in patent publication US5972946A, “Acetamide derivative, process for preparing the same, and a pharmaceutical composition containing the same” (Dainippon Pharmaceutical Co., Ltd., priority 1995, dated 1999).

How the values were obtained:
[1] = Light and dark box test (anti-anxiety effect); assay type: in vivo, mouse (Std-ddY, male); conditions: Mus musculus, 0.5 h; oral, 30 min before test; mice; p<0.05 vs vehicle; read-out: Anti-anxiety effect MED (minimum effective dose)
Description: Experiment 2: Light and dark box test (anti-anxiety effect)
Anti-anxiety effect of test compounds was examined in a box with light and dark compartments according to the method of Crawley, J. and Goodwin, F. K. [cf. Pharmacol. Biochem. Behav. 13, 167-170 (1980)] with slight modification.
Light and dark box test is a useful, simple and handy method for behaviorally and pharmacologically examining anti-anxiety effect of the drugs, by utilizing the habit of rodents such as mice and rats, etc. which prefer to stay in a dark place, and regarding as positive drug effect the increase of the relative stay of the animals in the light compartment which is an uncomfortable place for the animals.
Light and dark box test was carried out using the test box device (35×15×17 cm) which comprises: a light compartment (20×15×17 cm) consisting of transparent acrylic plates and highly illuminated by an incandescent lamp (1,700 lux); a dark compartment (15×15×17 cm) being made of black acrylic plates connected to the light compartment; and at the boundary of compartments, an opening (4.4×5 cm) in which mice can go through freely between two compartments.
Male mice of Std-ddY strain weighing 25-30 g were used in a group of 10. Each trial was started by placing a mouse in the center of the light compartment 30 minutes after oral administration of a test compound, and the time spent by the mouse in the light compartment during a 5 minute observation period was measured, and the rate of the stay of mice in the light compartment to the whole time spent in the experiment was calculated. The increasing rate of the relative stay of the test compound to that of the vehicle control group was yielded, based on the rate of the stay of mice in the light compartment.
The anti-anxiety effect of the test compound was represented by the minimum effectivetive dose (MED) at which the increasing rate of the relative stay was regarded statistically as significant (Williams-Wilcoxon's test, p<0.05).

[2] = Isoniazid-induced clonic convulsion test (anti-convulsant effect); assay type: in vivo, mouse (Std-ddY, male); conditions: Mus musculus, 0.5 h; oral, 30 min before isoniazid 200 mg/kg s.c.; mice; read-out: Anti-isoniazid effect ED25 (dose which prolonged the onset time of clonic convulsion by 25%)
Description: Experiment 3: Isoniazid-induced clonic convulsion test (anti-convulsant effect)
Isoniazid inhibits glutamate decarboxylase which catalyzes GABA synthesis, deases brain GABA levels, and induces clonic convulsion. According to the method of Auta, J. et al. [cf. J. Pharmacol. Exp. Ther. 265, 649-656 (1993)] with slight modification, we examined antagonistic effect of the test compounds on isoniazid-induced clonic convulsion. […] Those are BZ anxiolytics represented by diazepam, neurosteroids such as allopregnanolone, allotetrahydrodeoxycortico-sterone(THDOC) and BZω3 receptor agonists which enhance the synthesis of neurosteroids.
Male mice of Std-ddY strain weighing 22-24 g were used in a group of 6. Thirty minutes after oral administration of the test compounds, mice were injected with isoniazid (200 mg/kg, s.c.), and immediately thereafter, placed individually in acrylic observation cages. The onset time of clonic convulsion was measured (cut-off time: 90 minutes). The latency in the control group was about 40 minutes.
Anti-isoniazid effect of the test compounds was expressed as the dose which prolonged the onset time by 25% compared to that in the vehicle group (ED25). The ED25 value was calculated according to the Litchfield-Wilcoxon's method.

[3] = molecular target: peripheral (ω3) benzodiazepine (BZ) receptor (Rattus norvegicus, UniProt P16257); test: BZω3 (peripheral-type) benzodiazepine receptor binding assay
Description: Experiment 1: Central (ω1, ω2) and peripheral (ω3) benzodiazepine (BZ) receptor binding assays
BZω1 and BZω2 receptor binding assays were carried out according to the method of Stephens, D. N. et al. [cf.
Receptor membrane fractions for ω1, ω2 and ω3 were prepared from the cerebellum (ω1), spinal cord (ω1) or kidney (ω3) in 7-8 week old male rats of Wistar strain by the procedure described below.
After the cerebellum or spinal cord was homogenized with 20 volumes of ice-cold 50 mM Tris-citrate buffer (pH 7.1), the homogenate was centrifuged for 15 minutes at 40,000 g. The pellet obtained was washed 4 times by the same procedure, frozen and stored for 24 hours at -60° C. The resulting pellet, after being thawed, washed with the buffer and centrifuged, was suspended in the buffer I for the binding assay (50 mM Tris-HCl buffer containing 120 mM NaCl, 5 mM KCl, 2 mM CaCl2 and 1 mM MgCl2 ; pH 7.4) and the suspension thus obtained (containing 1 g wet tissue/40 ml) was used for the BZω1 and BZω2 receptor binding assays. On the other hand, the kidney was homogenized with 20 volumes of the ice-cold buffer II for the binding assay (50 mM Na--K phosphate buffer containing 100 mM NaCl; pH 7.4), filtered through 4 sheets of gauze, and centrifuged for 20 minutes at 40,000 g. The pellet obtained was suspended in the buffer II and the suspension (containing 1 g wet tissue/100 ml) was used for the binding assay as BZω3 receptor membrane source.
Flumazenil (final concentration: 0.3 nM for (ω1 and 1 nM for ω2) and flunitrazepam (final concentration: 10 μM) were used for the BZω1 or BZω2 receptor binding assays as the isotope-labeled and unlabeled ligands, respectively. For the BZω3 receptor binding assay, [^3 H] 4'-chlorodiazepam (7-chloro-1,3-dihydro-1-methyl-5-(4-chlorophenyl)-2H-1,4-benzodiazepin-2-one) (final concentration: 0.5 nM) and diazepam (final concentration: 100 μM) were used as the isotope-labeled and unlabeled ligands, respectively. Incubation was performed for 30 minutes at 37° C. in the BZω1 or BZω2 receptor binding assays, and for 150 minutes at 0° C. in the BZω3 receptor binding assay. The BZω1 or BZω2 receptor binding assays were carried out in the presence of bicuculline (final concentration: 100 μM).
The binding assay was performed by the following procedure. After adding each test compound at certain known concentrations, a [^3 H] ligand and the buffer I or II to each test tube, each assay was started by addition of membrane preparation (total volume of 1 ml). After incubation, the assay was terminated by filtration with suction through a Whatman GF/B glass fiber filter using a cell harvester (Brandel, USA). The filters were rapidly washed 3 times with 5 ml of ice-cold 50 mM Tris-HCl buffer (pH 7.7) for ω1 and ω2, or the buffer II forω3, and transferred to scintillation vials containing 10 ml liquid scintillation cocktail (ACS-II, Amersham, USA). After a few hours, retained radioactivity was counted by a liquid scintillation spectrometer. Specific binding of [^3 H] ligands was calculated as the difference between amounts of radioactivity bound in the presence and absence of excess unlabeled ligands.

IC50 [3] [nM] | SMILES | minimal effective dose [1] [mg/kg] | ED25 [2] [mg/kg]
3.1 | CCCN(CCC)C(=O)CNc1nc(-c2ccccc2)nc(C)c1C [Example 1, 2-(5,6-dimethyl-2-phenyl-4-pyrimidinylamino)-N,N-dipropylacetamide] | 0.3 | 82.2
0.97 | CCCN(CCC)C(=O)CNc1nc(-c2ccc(Cl)cc2)nc(C)c1C [Example 2, 2-[2-(4-Chlorophenyl)-5,6-dimethyl-4-pyrimidinylamino]-N,N-dipropylacetamide] | 0.01 | 65.6
4.36 | CCCN(CCC)C(=O)CNc1nc(-c2ccc(F)cc2)nc(C)c1C [Example 4] |  | 51.2
1.28 | CCCN(CCC)C(=O)CNc1nc(-c2ccc(OC)cc2)nc(C)c1C [Example 5] |  | 15.1
 | CCN(CC)C(=O)CNc1nc(-c2ccccc2)nc(C)c1C [Example 9] | 0.3 | 25.5
0.7 | CCN(CC)C(=O)CNc1nc(-c2ccc(Cl)cc2)nc(C)c1C [Example 10, 2-[2-(4-Chlorophenyl)-5,6-dimethyl-4-pyrimidinylamino]-N,N-diethylacetamide] | 1 | 36.9
 | CCN(CC)C(=O)CNc1nc(-c2ccc(F)cc2)nc(C)c1C [Example 11] |  | 47.5
 | CCN(CC)C(=O)CNc1nc(-c2ccc(OC)cc2)nc(C)c1C [Example 12] |  | 31.8
4 | CCCCN(CCCC)C(=O)CNc1nc(-c2ccc(F)cc2)nc(C)c1C [Example 16] | 0.1 | 
1.97 | CCCN(CC)C(=O)CNc1nc(-c2ccccc2)nc(C)c1C [Example 17] |  | 45.7
 | Cc1nc(-c2ccccc2)nc(NCC(=O)N(C)CC(C)C)c1C [Example 21] | 0.1 | 72.1
3.26 | Cc1nc(-c2ccccc2)nc(NCC(=O)N(C)c2ccccc2)c1C [Example 22] | 0.3 | 50.3
1.76 | Cc1nc(-c2ccc(Cl)cc2)nc(NCC(=O)N(C)c2ccccc2)c1C [Example 23, 2-[2-(4-Chlorophenyl)-5,6-dimethyl-4-pyrimidinylamino]-N-methyl-N-phenylacetamide] | 0.01 | 40.8
1.93 | Cc1nc(-c2ccc(F)cc2)nc(NCC(=O)N(C)c2ccccc2)c1C [Example 25] |  | 62.1
0.85 | Cc1nc(-c2ccccc2)nc(NCC(=O)N(C)c2ccc(Cl)cc2)c1C [Example 29, N-(4-Chlorophenyl)-N-methyl-2-(5,6-dimethyl-2-phenyl-4-pyrimidinylamino) a cetamide] | 0.03 | 67.5
 | Cc1nc(-c2ccccc2)nc(NCC(=O)N(C)c2cccc(Cl)c2)c1C [Example 31] | 0.3 | 
1.51 | Cc1nc(-c2ccccc2)nc(NCC(=O)N(C)c2ccc(F)cc2)c1C [Example 35] | 0.1 | 85.7
1.44 | Cc1nc(-c2ccc(Cl)cc2)nc(NCC(=O)N(C)c2ccc(F)cc2)c1C [Example 36, 2-[2-(4-Chlorophenyl)-5,6-dimethyl-4-pyrimidinylamino]-N-(4-fluorophenyl)-N-methylacetamide] | 0.3 | 54.2
1.66 | Cc1nc(-c2ccccc2)nc(NCC(=O)N(C)c2ccc(Br)cc2)c1C [Example 37] | 0.1 | 61.9
2.15 | COc1ccc(N(C)C(=O)CNc2nc(-c3ccc(Cl)cc3)nc(C)c2C)cc1 [Example 42, 2-[2-(4-Chlorophenyl)-5,6-dimethyl-4-pyrimidinylamino]-N-(4-methoxyphenyl)-N-methylacetamide] | < 0.01 | 58.7

IC50 [3] [nM] | SMILES | minimal effective dose [1] [mg/kg] | ED25 [2] [mg/kg]
4.98 | CCN(C(=O)CNc1nc(-c2ccccc2)nc(C)c1C)c1ccccc1 [Example 44] |  | 22.4
0.7 | CCN(C(=O)CNc1nc(-c2ccc(Cl)cc2)nc(C)c1C)c1ccccc1 [Example 45, 2-[2-(4-Chlorophenyl)-5,6-dimethyl-4-pyrimidinylamino]-N-ethyl-N-phenylacetamide] | 0.1 | 9.6
0.16 | CCN(C(=O)CNc1nc(-c2ccc(F)cc2)nc(C)c1C)c1ccccc1 [Example 47] |  | 7.62
 | CCN(C(=O)CNc1nc(-c2ccc(OC)cc2)nc(C)c1C)c1ccccc1 [Example 48] |  | 7.67
 | CCN(C(=O)CNc1nc(-c2ccc([N+](=O)[O-])cc2)nc(C)c1C)c1ccccc1 [Example 50] |  | 27.3
 | CCCN(C(=O)CNc1nc(-c2ccc(Cl)cc2)nc(C)c1C)c1ccccc1 [Example 53] |  | 11.3
1.62 | C=CCN(C(=O)CNc1nc(-c2ccccc2)nc(C)c1C)c1ccccc1 [Example 58] |  | 11.8
 | C=CCN(C(=O)CNc1nc(-c2ccc(Cl)cc2)nc(C)c1C)c1ccccc1 [Example 59] |  | 14.8
 | C=CCN(C(=O)CNc1nc(-c2ccc(OC)cc2)nc(C)c1C)c1ccccc1 [Example 60] |  | 2.14
9.8 | Cc1nc(-c2ccccc2)nc(NCC(=O)N(CC2CC2)c2ccccc2)c1C [Example 61] |  | 17.7
1.66 | Cc1nc(-c2ccccc2)nc(NCC(=O)N2CC(C)CC(C)C2)c1C (centres unmarked) [Example 65, 3,5-Dimethyl-1-(5,6-dimethyl-2-phenyl-4-pyrimidinylamino)acetylpiperidine] |  | 31.1
 | Cc1nc(-c2ccccc2)nc(NCC(=O)N2CC(C)OC(C)C2)c1C (centres unmarked) [Example 66a, 2,6-Dimethyl-4-(5,6-dimethyl-2-phenyl-4-pyrimidinylamino)acetylmorpholine] |  | 51.2
 | Cc1nc(-c2ccccc2)nc(NCC(=O)N2C[C@@H](C)O[C@@H](C)C2)c1C [Example 66b, cis-2,6-Dimethyl-4-(5,6-dimethyl-2-phenyl-4-pyrimidinylamino)acetylmorpholine] |  | 72.4
0.87 | Cc1nc(-c2ccccc2)nc(N2CCCC2C(=O)N(C)c2ccc(Cl)cc2)c1C (centres unmarked) [Example 79, N-(4-chlorophenyl)-N-methyl-1-(5,6-dimethyl-2-phenyl-4-pyrimidinyl)-2-pyrrolidinecarboxamide] |  | 43.8
5.02 | CCCN(CCC)C(=O)CNc1nc(-c2ccccc2)nc(C)c1CC [Example 83, 2-(5-ethyl-6-methyl-2-phenyl-4-pyrimidinylamino)-N,N-dipropylacetamide] |  | 70.2
0.38 | CCCN(CCC)C(=O)COc1nc(-c2ccc(OC)cc2)nc(C)c1C [Example 139] | 0.1 | 
 | COc1ccc(-c2nc(C)c(C)c(OCC(=O)N(C)c3ccc(Cl)cc3)n2)cc1 [Example 150] | 0.3 | 
1.56 | Cc1nc(-c2ccccc2)nc(OCC(=O)N2CC(C)OC(C)C2)c1C (centres unmarked) [Example 171, 2,6-Dimethyl-4-(5,6-dimethyl-2-phenyl-4-pyrimidinyloxy)acetylmorpholine] |  | 76.4
2 | CC1CN(C(=O)COc2nc(-c3ccc(Cl)cc3)nc3c2CCCC3)CC(C)O1 (centres unmarked) [Example 195, 4-[2-(4-Chlorophenyl)-5,6,7,8-tetrahydro-4-quinazolinyloxy] acetyl-2,6-dimethylmorpholine] |  | 
